Data taken from patent publication US7199138B2, “Substituted anthranilamides for controlling invertebrate pests” (E. I. du Pont de Nemours and Company, priority 2001, dated 2007).

A melting point of 231 to 233 °C was found for Cc1cc(NC(=O)c2ccccc2)cc(C(=O)NC(C)C)c1NC(=O)c1cc(C(F)(F)F)nn1-c1ncccc1Cl in this work.
